GI50 and TGI data for 15 molecules are collected here from PubChem BioAssay (NCI).

Several values for one entry are separate records, joined by “and”; a condition that tells them apart may be missing. Identical values can stand only once.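 How tested: cells in 96-well plates exposed to compound for 48 hours at five concentrations. Abbreviation: GI50, concentration required for 50% inhibition of growth. At the TGI there is no net growth.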

What all share (test): DTP human tumour cell line panel, 48 h
Assay [1] has as its system 786-0 renal.
The subject of assay [2] is HCT-15 colon.
Assay [3] concerns HOP-62 NSCLC.
Assay [4] concerns KM12 colon.
In assay [5] the test system is MDA-MB-435.
Assay [6] concerns SF-268 CNS.
The test system of assay [7] is SK-MEL-5 melanoma.
Assay [8] concerns UACC-257 melanoma.
For assay [9], the system named is UACC-62 melanoma.
Assay [10] concerns MOLT-4 leukemia.

`COC12C=C/C(=C(/C(=O)OCc3csc(SC)n3)C(=O)CCCCCCCCC3(OC)C=C/C(=C(/C(=O)OCc4cnc(SC)s4)C(=O)CCCCCCCC1)O3)O2` (centres undefined): the GI50 in assay [1] was 4.93 µM; in assay [2] it was 17 µM; in [3], 4.48 µM; in [4] it was 3.1 µM; in assay [5], 1.68 µM; in [6], 5.75 µM. Besides, the GI50 in [7] was 1.7 µM; in assay [8], 6.01 µM; in assay [9], 3.51 µM. In addition, the TGI in assay [1] was 26.1 µM; in assay [2] it was greater than 100 µM; in [3], 70.6 µM; in [4], greater than 100 µM; in assay [5] it was 5.32 µM; in assay [6], greater than 100 µM. Besides, the total growth inhibition concentration (TGI) in assay [7] is 3.56 µM; in assay [8], greater than 100 µM; in assay [9], 35.2 µM.
On to `CC[C@H](C)[C@H](NC(=O)N[C@@H](C)c1ccccc1)C(=O)N(C)[C@H](C[C@@H](OC(C)=O)c1nc(C(=O)N[C@@H](Cc2ccccc2)C[C@H](C)C(=O)OC)cs1)C(C)C`, for which the GI50 in assay [1] is 22.9 µM; in assay [2] it was 25.4 µM; in assay [3], 33 µM; in assay [4], 17.2 µM; in assay [5], 3.27 µM; in assay [6] it was 29.7 µM. Also, the results for the GI50 in assay [7], in [8] and in [9] were 13.1 µM, greater than 100 µM and 6.96 µM, respectively. In addition, the TGI was 82.2 µM in assay [1]; greater than 100 µM in [2]; greater than 100 µM in assay [3]; 84.3 µM in assay [4]; 13.3 µM in assay [5]; greater than 100 µM in assay [6]. Moreover, the TGI in assay [7] is 40.2 µM; in assay [8], greater than 100 µM; in [9], greater than 100 µM.
As for `CCCCCCCCCCCCCCCCCCNC(=O)[C@H]1CSC(c2ccc(F)c(OC)c2)N1` (some centres undefined), the GI50 in assay [1] is 1.01 µM; in [3], 0.843 µM; in assay [4], 0.899 µM; in assay [5] it was 0.518 µM; in assay [10], 0.717 µM; in assay [6] it was 0.908 µM. For the same molecule, the GI50 in assay [7] was 0.812 µM; in assay [8] it was 0.971 µM; in assay [9], 0.639 µM. The TGI was found to be 1.91 µM in [1]; 1.6 µM in assay [3]; 1.79 µM in [4]; 1.2 µM in [5]; 5.17 µM in assay [10]; 1.84 µM in assay [6]. Further, the TGI was found to be 1.52 µM in assay [7], 1.88 µM in [8] and 1.28 µM in [9].
Consider `O=c1c2ccccc2c(=O)c2c1sc1c(=O)c3ccc(O)cc3c(=O)c12`, for which the GI50 in assay [1] is 1.8 µM; in assay [3], 0.15 µM; in assay [4], 2.05 µM; in [5], 0.173 µM; in assay [10], 2.17 µM; in assay [6], 1.04 µM. For the same molecule, the GI50 is 0.127 µM in assay [7], 0.28 µM in [8] and 0.174 µM in [9]. Moreover, the TGI was 4.44 µM in assay [1]; 0.285 µM in assay [3]; 8.24 µM in assay [4]; 0.326 µM in [5]; 8.07 µM in assay [10]; 7.62 µM in assay [6]. In addition, the TGI in assay [7] came out at 0.256 µM; in [8], 0.736 µM; in assay [9], 0.331 µM.
For `CN1C=C(C(N)=O)C2CC(O)[C@@](NC(=O)CS(N)(=O)=O)(C(=O)O)C2C1` (some centres undefined), the TGI in assay [1] worked out at 16.4 µM; in [2], 66.3 µM; in assay [3], 4.27 µM; in [4] it was 49.8 µM; in [10] it was 31.6 µM; in [6] it was 10.3 µM. In addition, the TGI was 15.7 µM in assay [7], 27 µM in assay [8] and 7.02 µM in assay [9].
In the case of `COc1cc2c(c(OC)c1OC)-c1ccc(SC)c(=O)cc1[C@@H](NC(=O)c1ccc(F)cc1)CC2`, the GI50 in assay [1] is less than 0.01 µM; in assay [2] it was 0.043 µM; in assay [3], less than 0.01 µM; in assay [4], less than 0.01 µM; in assay [10], less than 0.01 µM; in [6], less than 0.01 µM. The GI50 is 0.0305 µM in assay [7] and less than 0.01 µM in assay [9]. In addition, the TGI in assay [1] is 11.5 µM; in assay [3], 39.9 µM; in assay [4], 0.0871 µM and 0.0284 µM; in assay [10], greater than 100 µM; in assay [6] it was 16.8 µM; in assay [8], greater than 100 µM. The TGI in assay [9] was 27.6 µM.
For `O=c1ncccn1C1OC(CO)C(O)C1F` (centres undefined), the TGI in [1], in assay [2], in [3], in [4], in [10] and in assay [6] was greater than 100 µM throughout. The TGI in assay [7], in assay [8] and in assay [9] was greater than 100 µM throughout. The GI50 in assay [2], in assay [4] and in assay [9] was greater than 100 µM in each case.
As for `O=C1Cc2ccccc2CCc2ccccc21`, the TGI in assay [1], in [2], in assay [3], in [4], in assay [10] and in [6] was greater than 100 µM throughout. Moreover, the concentration for total growth inhibition (TGI) in assay [7], in assay [8] and in [9] was greater than 100 µM in each case.
As for `Cc1ccc(NCCNCC(O)CO)c2c(=O)c3ccccc3sc12` (centres undefined), the GI50 is 1.37 µM in assay [1]; 1.29 µM in [2]; 1.35 µM in assay [3]; 1.74 µM in assay [4]; 1.52 µM in [5]; 1.81 µM in assay [6]. Further, the results for the GI50 in assay [7], in assay [8] and in assay [9] were 1.57 µM, 1.87 µM and 1.54 µM, respectively. Moreover, the TGI was 2.79 µM in assay [1]; 2.72 µM in [2]; 2.95 µM in assay [3]; 3.6 µM in assay [4]; 3.1 µM in assay [5]; 3.96 µM in assay [6]. Further, the concentration for total growth inhibition (TGI) in assay [7] was determined as 2.93 µM; in assay [8], 3.58 µM; in assay [9], 3.08 µM.
As for `COC(=O)C1=C(C(=O)OC)N(C(C)C)[C@H]2C(C(=O)OC)=C(C(=O)OC)N(C(C)C)[C@@H]12`, the TGI in [1], in assay [2], in assay [3], in assay [4], in assay [10] and in assay [6] was greater than 100 µM in each case. Besides, the concentration for total growth inhibition (TGI) in [7], in [8] and in assay [9] was greater than 100 µM each time.
`CCOc1ccccc1NC(=O)CCC(=O)NN`: the TGI in [1], in [2], in [3], in assay [4], in assay [10] and in assay [6] was greater than 100 µM throughout. For the same molecule, the TGI in assay [7], in assay [8] and in assay [9] was greater than 100 µM each time.
Regarding `CC(C)(C)OC(=O)n1c(Cl)c(C(=O)N=C=S)c2ccccc21`, the GI50 in assay [1] was 80 µM; in assay [2], 30 µM; in assay [3], greater than 100 µM; in assay [4], 18.4 µM; in [5], 80.8 µM; in assay [6], 37.5 µM. The GI50 in assay [7] is 18.8 µM; in assay [8] it was 55.4 µM; in assay [9], 28.8 µM. Further, the TGI was greater than 100 µM in assay [1]; greater than 100 µM in assay [2]; greater than 100 µM in [3]; 52 µM in assay [4]; greater than 100 µM in assay [5]; greater than 100 µM in assay [6]. Besides, the results for the total growth inhibition concentration (TGI) in assay [7], in [8] and in assay [9] were 40.1 µM, greater than 100 µM and 79 µM, respectively.
For the molecule `OCCN(CCO)c1ncnc2c1sc(=S)n2-c1ccccc1`, the TGI in assay [1], in [2], in assay [3], in [4], in assay [10] and in [6] was greater than 100 µM in each case. For the same molecule, the TGI in assay [7], in [8] and in assay [9] was greater than 100 µM each time.
As for `CN1C(=O)CC2(C)c3cc(C=O)ccc3N(C)C12` (centres undefined), the TGI in [1], in [2], in [3], in assay [4], in assay [10] and in assay [6] was greater than 100 µM each time. In addition, the TGI in assay [7], in assay [8] and in assay [9] was greater than 100 µM throughout.
Turning to `COc1cc(-c2nn3c(=O)n(-c4ccc(Cl)cc4)c(=O)nc3s2)cc(OC)c1OC`, the GI50 was 17.4 µM in assay [1]; greater than 50 µM in assay [2]; greater than 50 µM in [4]; 30.7 µM in [10]; 33.1 µM in assay [6]; greater than 100 µM in assay [9]. For the same molecule, the TGI is 50 µM and 41.4 µM in [1]; greater than 100 µM in [2]; greater than 71.9 µM in [3]; greater than 100 µM in assay [4]; 50 µM and > 100 µM in assay [10]; greater than 100 µM in [6]. In addition, the TGI in [7], in assay [8] and in assay [9] was greater than 100 µM throughout.
